# In ChEMBL document CHEMBL1201862, “PubChem BioAssay data set” (2004):
#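 Exposure lasted 48 hours, with cells grown in 96-well plates and compounds tested at five concentrations. GI50 is the concentration that inhibits growth by half.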 The source made the active and inactive calls. Cut-off read from the data, not from the text of the source: active = GI50 up to about 1.1 µM and inactive = higher.
# Tests used:
# Assay in all cases: NCI anticancer screen, dose series, 48 h
# LXFL 529 = tested on: LXFL 529
# SK-MEL-2 = tested on: SK-MEL-2
# UACC-257 = tested on: UACC-257
# OVCAR-8 = tested on: OVCAR-8
# RPMI-8226 = tested on: RPMI-8226
# NCI-H460 = tested on: NCI-H460
# OVCAR-4 = tested on: OVCAR-4
# NCI-H522 = tested on: NCI-H522
# HOP-18 = tested on: HOP-18
# EKVX = tested on: EKVX
# XF498 = tested on: XF498
# SNB-78 = tested on: SNB-78
# HL-60 = tested on: HL-60
# OVCAR-3 = tested on: OVCAR-3
# IGROV-1 = tested on: IGROV-1
# LOX IMVI = tested on: LOX IMVI
# SF-539 = tested on: SF-539
# SW-620 = tested on: SW-620
# OVCAR-5 = tested on: OVCAR-5
# Malme-3M = tested on: Malme-3M
# HOP-92 = tested on: HOP-92
# CCRF-CEM = tested on: CCRF-CEM
# UO-31 = tested on: UO-31
# TK-10 = tested on: TK-10
# SNB-75 = tested on: SNB-75
# M14 = tested on: M14
# DMS-114 = tested on: DMS-114
# COLO 205 = tested on: COLO 205
# A549 = tested on: A549
# HCT-116 = tested on: HCT-116
# DLD-1 = tested on: DLD-1
# DMS-273 = tested on: DMS-273
# RXF 631 = tested on: RXF 631
# SR = tested on: SR
# HT-29 = tested on: HT-29
# SK-MEL-28 = tested on: SK-MEL-28
# KM-20L2 = tested on: KM-20L2
# K562 = tested on: K562
# SNB-19 = tested on: SNB-19
# SF-295 = tested on: SF-295
# ACHN = tested on: ACHN
# 786-0 = tested on: 786-0
# RXF 393 = tested on: RXF 393
# U-251 = tested on: U-251
# SF-268 = tested on: SF-268
# SN12C = tested on: SN12C
# NCI-H23 = tested on: NCI-H23
# NCI-H226 = tested on: NCI-H226
# KM12 = tested on: KM12
# MOLT-4 = tested on: MOLT-4
# SK-MEL-5 = tested on: SK-MEL-5
# SK-OV-3 = tested on: SK-OV-3
# HOP-62 = tested on: HOP-62
# UACC-62 = tested on: UACC-62
# HCC 2998 = tested on: HCC 2998
# CAKI-1 = tested on: CAKI-1
# HCT-15 = tested on: HCT-15
# A498 = tested on: A498
# M19-MEL = tested on: M19-MEL
structure (smiles),measurement,setting,value
CC(C)(C)c1cc(-c2c3nc(c(-c4cc(C(C)(C)C)cc(C(C)(C)C)c4)c4ccc([nH]4)c(-c4cc(C(C)(C)C)cc(C(C)(C)C)c4)c4nc(c(-c5cc(C(C)(C)C)cc(C(C)(C)C)c5)c5ccc2[nH]5)C=C4)C=C3)cc(C(C)(C)C)c1,GI50,LXFL 529,> 100 µM (inactive)
same,GI50,SK-MEL-2,> 100 µM (inactive)
same,GI50,UACC-257,> 100 µM (inactive)
same,GI50,OVCAR-8,> 100 µM (inactive)
same,GI50,RPMI-8226,> 100 µM (inactive)
same,GI50,NCI-H460,> 100 µM (inactive)
same,GI50,OVCAR-4,> 100 µM (inactive)
same,GI50,NCI-H522,> 100 µM (inactive)
same,GI50,HOP-18,> 100 µM (inactive)
same,GI50,EKVX,> 100 µM (inactive)
same,GI50,XF498,> 100 µM (inactive)
same,GI50,SNB-78,> 100 µM (inactive)
same,GI50,HL-60,> 100 µM (inactive)
same,GI50,OVCAR-3,> 100 µM (inactive)
same,GI50,IGROV-1,> 100 µM (inactive)
same,GI50,LOX IMVI,> 100 µM (inactive)
same,GI50,SF-539,> 100 µM (inactive)
same,GI50,SW-620,> 100 µM (inactive)
same,GI50,OVCAR-5,> 100 µM (inactive)
same,GI50,Malme-3M,> 100 µM (inactive)
same,GI50,HOP-92,> 100 µM (inactive)
same,GI50,CCRF-CEM,> 100 µM (inactive)
same,GI50,UO-31,> 100 µM (inactive)
same,GI50,TK-10,> 100 µM (inactive)
same,GI50,SNB-75,> 100 µM (inactive)
same,GI50,M14,> 100 µM (inactive)
same,GI50,DMS-114,> 100 µM (inactive)
same,GI50,COLO 205,> 100 µM (inactive)
same,GI50,A549,> 100 µM (inactive)
same,GI50,HCT-116,> 100 µM (inactive)
same,GI50,DLD-1,> 100 µM (inactive)
same,GI50,DMS-273,> 100 µM (inactive)
same,GI50,RXF 631,> 100 µM (inactive)
same,GI50,SR,> 100 µM (inactive)
same,GI50,HT-29,> 100 µM (inactive)
same,GI50,SK-MEL-28,> 100 µM (inactive)
same,GI50,KM-20L2,> 100 µM (inactive)
same,GI50,K562,> 100 µM (inactive)
same,GI50,SNB-19,> 100 µM (inactive)
same,GI50,SF-295,> 100 µM (inactive)
same,GI50,ACHN,> 100 µM (inactive)
same,GI50,786-0,> 100 µM (inactive)
same,GI50,RXF 393,> 100 µM (inactive)
same,GI50,U-251,> 100 µM (inactive)
same,GI50,SF-268,> 100 µM (inactive)
same,GI50,SN12C,> 100 µM (inactive)
same,GI50,NCI-H23,> 100 µM (inactive)
same,GI50,NCI-H226,> 100 µM (inactive)
same,GI50,KM12,> 100 µM (inactive)
same,GI50,MOLT-4,> 100 µM (inactive)
same,GI50,SK-MEL-5,> 100 µM (inactive)
same,GI50,SK-OV-3,> 100 µM (inactive)
same,GI50,HOP-62,> 100 µM (inactive)
same,GI50,UACC-62,> 100 µM (inactive)
same,GI50,HCC 2998,> 100 µM (inactive)
same,GI50,CAKI-1,> 100 µM (inactive)
same,GI50,HCT-15,> 100 µM
same,GI50,A498,> 100 µM (inactive)
C/C(CCn1[nH]c(=O)ccc1=O)=N\Nc1ccc([N+](=O)[O-])cc1[N+](=O)[O-],GI50,LXFL 529,14.6 µM (inactive)
same,GI50,SK-MEL-2,> 100 µM (inactive)
same,GI50,UACC-257,> 100 µM (inactive)
same,GI50,OVCAR-8,93.1 µM (inactive)
same,GI50,RPMI-8226,> 100 µM (inactive)
same,GI50,NCI-H460,37 µM (inactive)
same,GI50,OVCAR-4,> 100 µM (inactive)
same,GI50,HOP-18,> 100 µM (inactive)
same,GI50,EKVX,> 100 µM (inactive)
same,GI50,XF498,> 100 µM (inactive)
same,GI50,SNB-78,> 100 µM (inactive)
same,GI50,HL-60,> 100 µM (inactive)
same,GI50,OVCAR-3,> 100 µM (inactive)
same,GI50,M19-MEL,> 100 µM (inactive)
same,GI50,IGROV-1,> 100 µM (inactive)
same,GI50,LOX IMVI,26.8 µM (inactive)
same,GI50,SF-539,95.5 µM (inactive)
same,GI50,SW-620,> 100 µM (inactive)
same,GI50,OVCAR-5,> 100 µM (inactive)
same,GI50,Malme-3M,> 100 µM (inactive)
same,GI50,HOP-92,> 100 µM (inactive)
same,GI50,CCRF-CEM,> 100 µM (inactive)
same,GI50,UO-31,12.7 µM (inactive)
same,GI50,TK-10,> 100 µM (inactive)
same,GI50,SNB-75,> 100 µM (inactive)
same,GI50,M14,26 µM (inactive)
same,GI50,DMS-114,81.8 µM (inactive)
same,GI50,A549,> 100 µM (inactive)
same,GI50,HCT-116,> 100 µM (inactive)
same,GI50,DLD-1,> 100 µM (inactive)
same,GI50,DMS-273,25.4 µM (inactive)
same,GI50,RXF 631,> 100 µM (inactive)
same,GI50,SR,> 100 µM (inactive)
same,GI50,HT-29,> 100 µM (inactive)
same,GI50,SK-MEL-28,> 100 µM (inactive)
same,GI50,KM-20L2,33.7 µM (inactive)
same,GI50,K562,20.6 µM (inactive)
same,GI50,SNB-19,> 100 µM (inactive)
same,GI50,SF-295,20.5 µM (inactive)
same,GI50,ACHN,90.8 µM (inactive)
same,GI50,786-0,> 100 µM (inactive)
same,GI50,RXF 393,> 100 µM (inactive)
same,GI50,SF-268,> 100 µM (inactive)
same,GI50,SN12C,> 100 µM (inactive)
same,GI50,NCI-H23,> 100 µM (inactive)
same,GI50,NCI-H226,> 100 µM (inactive)
same,GI50,KM12,33.5 µM (inactive)
same,GI50,MOLT-4,> 100 µM (inactive)
same,GI50,SK-MEL-5,41.8 µM (inactive)
same,GI50,HOP-62,> 100 µM (inactive)
same,GI50,UACC-62,5.9 µM (inactive)
same,GI50,HCC 2998,> 100 µM (inactive)
same,GI50,CAKI-1,> 100 µM (inactive)
same,GI50,HCT-15,23.6 µM
same,GI50,A498,> 100 µM (inactive)
CN(/N=C/c1cccc2cccnc12)c1c([N+](=O)[O-])cc([N+](=O)[O-])cc1[N+](=O)[O-],GI50,LXFL 529,> 100 µM (inactive)
same,GI50,SK-MEL-2,> 100 µM (inactive)
same,GI50,UACC-257,> 100 µM (inactive)
same,GI50,OVCAR-8,> 100 µM (inactive)
same,GI50,RPMI-8226,> 100 µM (inactive)
same,GI50,NCI-H460,> 100 µM (inactive)
same,GI50,OVCAR-4,> 100 µM (inactive)
same,GI50,HOP-18,> 100 µM (inactive)
same,GI50,EKVX,> 100 µM (inactive)
same,GI50,XF498,> 100 µM (inactive)
same,GI50,SNB-78,> 100 µM (inactive)
same,GI50,HL-60,5.82 µM (inactive)
same,GI50,OVCAR-3,> 100 µM (inactive)
same,GI50,M19-MEL,> 100 µM (inactive)
same,GI50,IGROV-1,> 100 µM (inactive)
same,GI50,LOX IMVI,45.3 µM (inactive)
same,GI50,SF-539,> 100 µM (inactive)
same,GI50,SW-620,> 100 µM (inactive)
same,GI50,OVCAR-5,> 100 µM (inactive)
same,GI50,Malme-3M,> 100 µM (inactive)
same,GI50,HOP-92,> 100 µM (inactive)
same,GI50,TK-10,> 100 µM (inactive)
same,GI50,SNB-75,> 100 µM (inactive)
same,GI50,M14,> 100 µM (inactive)
same,GI50,DMS-114,6.52 µM (inactive)
same,GI50,COLO 205,> 100 µM (inactive)
same,GI50,A549,46.8 µM (inactive)
same,GI50,HCT-116,> 100 µM (inactive)
same,GI50,DLD-1,> 100 µM (inactive)
same,GI50,DMS-273,7.6 µM (inactive)
same,GI50,RXF 631,> 100 µM (inactive)
same,GI50,HT-29,69.2 µM (inactive)
same,GI50,SK-MEL-28,> 100 µM (inactive)
same,GI50,KM-20L2,> 100 µM (inactive)
same,GI50,K562,3.56 µM (inactive)
same,GI50,SNB-19,> 100 µM (inactive)
same,GI50,SF-295,> 100 µM (inactive)
same,GI50,ACHN,> 100 µM (inactive)
same,GI50,786-0,> 100 µM (inactive)
same,GI50,RXF 393,> 100 µM (inactive)
same,GI50,U-251,> 100 µM (inactive)
same,GI50,SF-268,> 100 µM (inactive)
same,GI50,SN12C,> 100 µM (inactive)
same,GI50,NCI-H23,> 100 µM (inactive)
same,GI50,NCI-H226,> 100 µM (inactive)
same,GI50,KM12,25.2 µM (inactive)
same,GI50,MOLT-4,11.4 µM (inactive)
same,GI50,SK-MEL-5,64.9 µM (inactive)
same,GI50,SK-OV-3,> 100 µM (inactive)
same,GI50,HOP-62,> 100 µM (inactive)
same,GI50,UACC-62,> 100 µM (inactive)
same,GI50,HCC 2998,> 100 µM (inactive)
same,GI50,CAKI-1,> 100 µM (inactive)
same,GI50,HCT-15,13.2 µM
same,GI50,A498,25.5 µM (inactive)
